# Data as given in US20240325420A1, “COMPOSITION INCLUDING PAEONIFLORIN FOR PREVENTION OR TREATMENT OF CACHEXIA AND MUSCLE LOSS” (CHUNG ANG UNIVERSITY INDUSTRY ACADEMIC COOPERATION …, priority 2021, published 2024).
# System: TNF-α
# Test: Plasma TNF-α by ELISA in mice with cisplatin-induced cachexia
# Assay type: in vivo
# Conditions: C57B/6 mice; cisplatin plus paeoniflorin-treated group vs cisplatin-treated group; FIG. 13A
# Protocol: In addition, cisplatin-treated mice orally administered the same volume of distilled water were designated as the vehicle group. After completion of drug treatment, the mice of each group were euthanized with 10 mg/kg alfaxalone (Jurox, Rutherford, Australia). Blood was collected in test tubes containing EDTA, and centrifuged, and plasma was separated therefrom. Gastrocnemius and quadriceps skeletal muscles were dissected and weighed. The skeletal muscles were rapidly frozen in liquid nitrogen to be used for RT-qPCR, Western blotting, and ELISA.
# The levels of TNF-α and interleukin (IL)-6 were measured using respective mouse ELISA kits (Invitrogen, Waltham, MA, USA). IL-1β and GDF-15 levels were measured using respective Quantikine ELISA kits (R&D Systems, Minneapolis, MN, USA).
# The protein concentration of the pro-inflammatory cytokine TNF-α in the plasma of mice was analyzed by ELISA.
structure (smiles),measurement,value
C[C@@]12C[C@@]3(O)O[C@@H](O1)[C@]1(COC(=O)c4ccccc4)[C@H]3C[C@@]12O[C@@H]1O[C@H](CO)[C@@H](O)[C@H](O)[C@H]1O [paeoniflorin],plasma concentration of TNF-α,significantly decreased
